Data published in the NIST ThermoML archive (doi:10.1016/j.fluid.2009.02.010).
Numbers after ± are expanded uncertainties. Each block holds one compound with its values, some of them ahead of it.

Legend:
[1] = refractive index (Na D-line) (dimensionless); conditions: 298.15 K; 101.33 kPa; Liquid; Standard Abbe refractometry
[2] = Liquid, Ebulliometric method (Recirculating still)

Structure (SMILES): Cc1ccsc1 [3-methylthiophene]
refractive index [1]: 1.5172 ± 0.0007
vapor or sublimation pressure ([2]; 333.15 K): 15.43 ± 0.35 kPa
vapor or sublimation pressure ([2]; 341.98 K): 21.8 ± 0.35 kPa
vapor or sublimation pressure ([2]; 350.79 K): 30.23 ± 0.36 kPa
vapor or sublimation pressure ([2]; 359.01 K): 40.33 ± 0.37 kPa
vapor or sublimation pressure ([2]; 365.62 K): 50.31 ± 0.38 kPa
vapor or sublimation pressure ([2]; 371.73 K): 61.23 ± 0.39 kPa
vapor or sublimation pressure ([2]; 376.26 K): 70.53 ± 0.4 kPa
vapor or sublimation pressure ([2]; 380.53 K): 80.35 ± 0.42 kPa
vapor or sublimation pressure ([2]; 384.69 K): 91 ± 0.43 kPa
vapor or sublimation pressure ([2]; 387.89 K): 100.02 ± 0.44 kPa

Structure (SMILES): C1CCCCC1 [cyclohexane]
refractive index [1]: 1.4235 ± 0.0007

Structure (SMILES): C=CCCCC [hex-1-ene]
refractive index [1]: 1.3849 ± 0.0007

Structure (SMILES): Cc1ccccc1C [1,2-dimethylbenzene]
refractive index [1]: 1.5028 ± 0.0007

The next lines start with the values.

refractive index [1]: 1.4062 ± 0.0007
Structure (SMILES): C=C(C)CC(C)(C)C [2,4,4-trimethyl-1-pentene]

refractive index [1]: 1.3889 ± 0.0007
Structure (SMILES): CC(C)CC(C)(C)C [2,2,4-trimethylpentane]
